# Assay results reported in patent publication US10087142B2, “Azetidine derivatives useful as modulators of cortical cathecolaminergic neurotransmission” (Integrative Research Laboratories Sweden AB, priority 2015, dated 2018).
# Where two headings read alike, the source gives them in different places. Marks after values point to notes of the source that are not given here.
# Assays:
# [1] = tested on: monoamine transmitters (NA, DA and 5-HT); assay: In vivo brain microdialysis of monoamines in striatum and frontal cortex; parameters: species or system rat; conditions: 50 μmol/kg s.c., rats; for response vs control in vivo at 50 µmol/kg: Rattus norvegicus, sc
# Description: The microdialysis technique (See, for instance, Collin and Ungerstedt, Microdialysis: user's guide, Carnegie Medicin, Stockholm, 1988) is a well-established technique for measuring extracellular levels of neurotransmitters (Ungerstedt, J Int Med, 1991, 230; 365-73). The microdialysis technique was used to measure the effect of compounds disclosed herein upon the efflux of monoamine transmitters (NA, DA and 5-HT) in striatum and frontal cortex in conscious, freely moving rats.
# Male Sprague-Dawley rats weighing 280-320 g were used throughout the experiments. Before the experiment the animals were housed in groups, maximum five animals in each cage, with free access to water and food. The animals were housed at least one week prior to surgery and use in the experiments.
# A modified version (Waters et al., J Neural Transm Gen Sect, 1994, 98(1); 39-55) of the I-shaped probe (Santiago and Westerink, N-S Arch Pharmacol, 1990, 342; 407-14) with the AN69 polyacrylonitrile/sodium methyl sulfonate copolymer (HOSPAL; o.d/i.d. 310/220 μm: dialysis membrane (Gambro, Lund, Sweden) was used in the microdialysis experiments. In the dorsal striatum, probes with an exposed length of 3 mm of dialysis membrane were used and in the prefrontal cortex the corresponding length was 2.5 mm. The rats were operated under isoflurane inhalation anesthesia while mounted into a Kopf stereotaxic instrument. Coordinates were calculated relative to bregma; dorsal striatum AP+1.0, ML±2.6, DV 6.2; Pf cortex, AP 15+3.2, ML+1.2, DV −4.08°, according to Paxinos and Watson (New York, Academic Press, 1986; FIG. 8 and FIG. 14). The dialysis probe was positioned in a burr hole under stereotaxic guidance and cemented with phosphatine dental cement (DAB Dental).
# The rats were housed individually in cages for 48 h before the dialysis experiments, allowing them to recover from surgery and minimizing the risk of drug interactions with the anesthetics during the following experiments. During this period the rats had free access to food and water.
# On the day of the experiment the rats were connected to a micro-perfusion pump via a swivel and were replaced in the cage where they could move freely within its confinements. The perfusion medium was a Ringer's solution containing (in mmol/I): NaCl; 140, CaCl2; 1.2, KCl; 3.0, MgCl2; 1.0 (Moghaddam and Bunney. Neurochem., 1989, 53; 652-4). The pump was set to a perfusion speed of 2 μl/min and 40 μl sample volume were collected every 20 min.
# The rats were perfused for at least 40 min before sampling began. Five fractions of each 20 min were collected and the last three were used for the establishment of the baseline. After collection of baseline fractions, the pharmacological challenge to the dialysis experiment started. Test compounds were administrated by injection (s.c.) in a volume of 5 ml/kg, with 0.9% NaCl (saline) as vehicle.
# The analytical method were based on two chromatographic separations dedicated for amines or acids. Two chromatographic systems shared a common auto injector with a 10-port valve and two sample loops for simultaneous injection on the two systems.
# The acids were separated by reversed phase chromatography while the amines were separated by reversed phase ion pairing chromatography preceded by a reverse phase separation in a column switching configuration. Three separation columns (Luna C18 (2), dp 3 μm, 2 mm i.d., Phenomenex) of different lengths were used. Electrochemical detection was accomplished on glassy carbon electrodes (MF-1000, Bioanalytical Systems, Inc.)
# The aqueous mobile phase (0.6 ml/min) for the acid system contained citric acid (40 mM, dipotassium hydrogen phosphate 10 mM, methanol 8-11% (v/v) and EDTA 0.1 mM. Column length was 30 mm and detection potential relative to Ag/AgCl reference was 0.74V. […]
# DOPAC = assay: Neurochemistry: tissue levels of DOPAC in brain regions; type: in vivo, rat; conditions: 33 μmol/kg s.c., rats, 65 min before sacrifice, n = 5
# Description: The change in turnover of dopamine in the terminal areas of the ascending dopaminergic projections of the mammalian brain can be illustrated by measuring of changes in biochemical indices in the brain e.g. changes in concentrations of dopamine metabolites such as 3,4-dihydroxyphenyl-acetic acid (DOPAC) in the striatum and frontal cortex.
# The measurement of the tissue content of DOPAC is well established in the field of research since the 1960's. In short, male Sprague-Dawley rats are administered the test compound 60 minutes prior to decapitation. The brain is rapidly taken out and dissected. The striatum is rapidly frozen and subsequently quantitatively analyzed with respect to its content of DOPAC by means of HPLC and electrochemical detection. The number of animals used for each test compound/vehicle is 5/group.
# After the behavioural activity sessions, the rats were decapitated and their brains rapidly taken out and put on an ice-cold petri-dish. The brains were dissected into a right and a left part of which the right part was analyzed for neurochemicals with HPLC and the left part was analyzed for gene expression. The limbic forebrain, the striatum, the frontal cortex, the hippocampus and the remaining hemispheral parts of each rat were dissected and frozen. Each brain part was subsequently analyzed with respect to its content of monoamines and their metabolites.
# The monoamine transmitter substances (NA (noradrenaline), DA (dopamine), 5-HT (serotonin)) as well as one corresponding acid, (DOPAC (3,4-dihydroxyphenylacetic acid), were quantified in brain tissue homogenates by HPLC separations and electrochemical detection.
# The analytical method is based on two chromatographic separations dedicated for amines or acids. Two chromatographic systems share a common auto injector with a 10-port valve and two sample loops for simultaneous injection on the two systems. Both systems are equipped with a reverse phase column (Luna C18 (2), dp 3 μm, 50*2 mm i.d., Phenomenex) and electrochemical detection is accomplished at two potentials on glassy carbon electrodes (MF-1000, Bioanalytical Systems, Inc.). The column effluent is passed via a T-connection to the detection cell or to a waste outlet. This is accomplished by two solenoid valves, which block either the waste or detector outlet. By preventing the chromatographic front from reaching the detector, better detection conditions are achieved. The aqueous mobile phase (0.4 ml/min) for the acid system contains citric acid 14 mM, sodium citrate 10 mM, Methanol 15% (v/v) and EDTA 0.1 mM. Detection potentials relative to Ag/AgCl reference are 0.45 and 0.60V. […] Detection potentials relative to Ag/AgCl reference are 0.45 and 0.65V.
smiles,measurement,setting,value
"Fc1ccc(F)c(C(F)C2CNC2)c1.O=C(O)C(=O)O (stereo not drawn) [Example 6, 3-[(2,5-Difluorophenyl)(Fluoro)Methyl]Azetidine Oxalate Salt]","NA Stri ± SEM, maximum effect compared to baseline",[1]; striatum dialysate,1375^a percent of control
same,response vs control in vivo at 50 µmol/kg,"[1]; frontal cortex dialysate, read-out: 5-HT FC ± SEM, maximum effect compared to baseline",182 ± 12%
same,response vs control in vivo at 50 µmol/kg,"[1]; striatum dialysate, read-out: 5-HT Stri ± SEM, maximum effect compared to baseline",208%
same,response vs control in vivo at 50 µmol/kg,"[1]; striatum dialysate, read-out: DA Stri ± SEM, maximum effect compared to baseline",242%
same,DOPAC frontal cortex ± SEM,DOPAC; frontal cortex tissue,139 ± 10% of control means
same,DOPAC striatum ± SEM,DOPAC; striatum tissue,76 ± 3% of control means
